# Laboratory results from patent publication US20240009148A1, “Cystamine Formulations and Uses Thereof” (Birch Therapeutics, Inc., priority 2020, published 2024).
# Counter-ions that a name gives are not always drawn. Like-named read-outs stand apart in the source and are kept apart here.
# What was measured:
# [1] = set-up: species or system male Sprague Dawley rats; details: rat, in vivo
# Experimental: Cystamine dihydrochloride and cysteamine hydrochloride were administered to rats 1) orally on an empty stomach; 2) orally on full stomach; and 3) intra-cecum to evaluate the pharmacokinetics of cystamine and to compare it to cysteamine pharmacokinetics. Oral administration (PO) simulated immediate-release (IR) formulations. Intra-cecum (IC) administration simulated large intestine release (LIR) formulations, which provides a time to Cmax of more than 4 hours after administration.
# Animal studies were performed by Absorption Systems. Test articles: Cysteamine hydrochloride (CH), 98%; Cystamine dihydrochloride (HCCH), 95-96% (both obtained from Sigma Aldrich). CH has one cysteamine base, while HCCH, upon disulfide bond reduction, yields two cysteamine molecules. CH and HCCH were administered at a dose selected to deliver 30 mg/kg of cysteamine base (44.2 mg/kg and 43.8 mg/kg respectively), so that each rat received same number of cysteamine molecules. Test articles (dry powder) were dissolved in 3 mL for PO and in 0.5 mL for IC of room temperature water no more than 15 minutes before dosing.
# Five (5) male Sprague Dawley rats ˜300-350 gram (Envigo) were used per group, with 6 groups total.
# All animals were healthy at the start of the trial and assigned randomly to the study groups by weight. Fed state animals had food and water supplied ad libitum. Fasted state animals had food removed at least 12 hours prior to dosing and food was returned 4 hours post dosing; water was supplied ad libitum. Oral gavage needle and syringe were used for oral administration. For IC dose administration, the animals were anesthetized with isoflurane regulated at ˜1-3% in oxygen. The abdominal cavity was surgically opened and the proximal large intestine was exposed. A test article was administered directly into the proximal large intestine with a 1 cc disposable syringe equipped with a 25 g hypodermic needle. The surgical site was then closed with staples or suture.
# Blood was sampled from jugular vein at the following time points: pre-dose, 15, 30, 60, 120, 180, and 240 minutes post dose. Blood samples were collected into tubes containing TBD anticoagulant, then centrifuged at a temperature of 4° C., at 3,000×g, for 5 minutes. Once prepared, plasma samples were snap frozen. Plasma samples were stored at −80° C. until analysis.
# Sample analysis was performed by Integrated Analytical Solutions. To measure plasma cysteamine, to 10 uL of a plasma sample or standard was added 10 uL of internal standard with reduction solution: 5 ug/mL d4-cysteamine (CDN Isotopes), 10 mM TCEP in water, prepared fresh, and mixed thoroughly. The mixture was incubated at 37° C. for 60 minutes, then 40 uL of 5% trichloroacetic acid was added and the solution was mixed thoroughly. Samples were then centrifuged at 6100 g for 30 minutes. Next, 20 uL of each supernatant were transferred to an autosampler plate and sealed with a cap mat. The concentration of cysteamine was measured by use of LC/MS/MS tandem mass spectroscopy. Column Atlantis T3 2.1×30mm, 3um was used at a room temperature; mobile phase A: 0.1% heptafluorobutyric acid in water; mobile phase B: 0.2% formic acid in acetonitrile; injection volume: 3 uL. (API 4000 LC/MS/MS; Applied Biosystems). The following MS parameters were used—HPLC system: Shimadzu VP Series 10 System; MS/MS: Applied Biosystems/MDS SCIEX API 4000; software: Analyst v1.6.3; isolation method: Electrospray, Positive Ion; source temperature: TurbolonSpray (ESI) at 400°. Cysteamine concentrations were calculated with a calibration curve that was prepared by spiking plasma with buffered cysteamine solutions, and quality control samples were analyzed with each batch.
# [2] = system: cystinosis fibroblast cell culture; details: compared with cysteamine (Thoene 1976); cited from earlier work
compound,measurement,setting,value
"Cl.Cl.NCCSSCCN [HCCH, Cystamine dihydrochloride]",AUC for dosing into the large intestine lower than AUC for oral dosing,"[1]; male, Sprague Dawley, po",25%
same,Cmax for IC dosing lower than Cmax after oral administration,"[1]; male, Sprague Dawley, po",more than 50%
same,Absorption pattern after dosing to the large intestine,[1],"not rapid, but rather sustained"
same,Cmax of plasma cysteamine compared to CH,[1]; po,higher Cmax
NCCSSCCN [Cystamine],Decrease of lysosomal cystine,[2],comparably to cysteamine
"NCCS [CH, Cysteamine hydrochloride, reference compound]","Cmax of plasma cysteamine, IC compared to PO fasted",[1],higher
same,Tmax (time to Cmax) of plasma cysteamine,[1],15 min
same,Tmax (time to Cmax) of plasma cysteamine,[1]; po,15 min
